# Assay results: patent US20110257436A1, “PROCESS FOR THE MANUFACTURE OF EASILY DISPERSIBLE, SOLID N'-HYDROXY-N-CYCLOHEXYL-DIAZENIUM OXIDE SALTS” (BASF SE, priority 2008, published 2011)
# Assays:
# [1] = particle size distribution analysis (volume distribution) by laser diffraction of aqueous dispersion; type: physicochemical
# Description: The D10, D50 and D90 represent the median or the 10th, 50th, and the 90th percentile of the particle size distribution (volume distribution), respectively. That is, the D50 (D10/D90) is a value on the distribution such that 50% (10%/90%) of the particles have a particle size of this value or less. The volume averaged particle size distribution may be measured with an aqueous dispersion of the M^n+(HDO)n by techniques known to the skilled artisan, e.g. by laser diffraction techniques.
# Furthermore, a particle size distribution analysis (volume distribution) was performed using a conventional laser diffraction apparatus (Mastersizer® 2000, Fa. Malvern Instruments). For the measurement, 1 g of Cu(HDO)2 was dispersed in 100 ml of water sample and 1 ml of a solution (1% by weight) of a nonionic surfactant (polyethylene glycole p-(1,1,3,3-tetramethylbutyl)-phenyl ether, around 9-10 ethylene oxide groups). […]
# [2] = cited from earlier work
# [3] = dispersion time 1 min, 1 g in 100 ml water with nonionic surfactant
Structure (SMILES),D10 value ([1]; after 10 min dispersion) [μm],D50 ([1]; after 10 min dispersion) [μm],D90 ([1]; after 10 min dispersion) [μm],D10 value ([1]; after 30 min dispersion) [μm],D50 ([1]; after 30 min dispersion) [μm],D90 ([1]; after 30 min dispersion) [μm],"D10 value [1, 3] [μm]","D50 [1, 3] [μm]","D90 [1, 3] [μm]",solubility in water [2]
"[Cu+2].[O-]/N=[N+](\[O-])C1CCCCC1.[O-]/N=[N+](\[O-])C1CCCCC1 [Comparative Example, reference compound]",2,15,79,2,12,53,3,23,306,
"O=NN([O-])C1CCCCC1.O=NN([O-])C1CCCCC1.[Cu+2] [Cu(HDO)2, Cu-salt of N′-hydroxy-N-cyclohexyldiazenium oxide]",14,45,108,12,41,93,16,49,140,around 30 ppm
